Assay results reported in PMC4393083, “Antiviral Activity and Possible Mechanism of Action of Constituents Identified in Paeonia lactiflora Root toward Human Rhinoviruses” (PLoS ONE, 2015).

What was measured:
Type in all cases: cell-based, human
sICAM-1 = test: Soluble ICAM-1 ELISA in MRC5 culture supernatants; settings: HRV-2 or HRV-4 infected MRC5 cultures, 100 μg/mL PA, 20 μg/mL PGG
Procedure: (§1) The expressions of ICAM-1 and LDLR were examined using real-time qRT-PCR and Western blot. Furthermore, concentrations of soluble ICAM-1 (sICAM-1) in cell-free culture supernatants 2 days after treatment were measured using a sICAM-1 ELISA Kit (Pierce Biotechnology, Rockford, IL) according to the manufacturer’s instructions. The sensitivities of the assays were 0.3 ng/mL. The concentrations of ICAM-1 in the test samples were determined from OD values using standard curve of each assay.

IL-6 = IL-6 ELISA in MRC5 supernatants; settings: for IL-6 concentrations in infected cultures: HRV-2 or HRV-4 infected MRC5 supernatants, 2 days, 100 μg/mL PA, 20 μg/mL PGG
Procedure: The concentrations of IL-6, IL-8, and TNF in cell-free culture supernatants 2 days after treatment were measured using specific ELISA. OptEIA IL-6, IL-8, and TNF ELISA kits (BD Biosciences, San Diego, CA) were used for the assays. The sensitivities of these ELISA assays were 2.2, 0.8, and 2.0 pg/mL, respectively. The concentrations of IL-6, IL-8, and TNF in the test samples were determined from OD values using standard curve of each assay.

mICAM-1 = test: Western blot of mICAM-1 in MRC5 cells; settings: MRC5, 2 days, HRV-2 or HRV-4, 100 μg/mL PA, 20 μg/mL PGG
Procedure: Cell lysates from infected and noninfected MRC5 cultures 2 days after incubation with or without test compounds were obtained in RIPA buffer and 1% mammalian cell protease inhibitor cocktail according to the manufacturer’s instructions. Working dilutions of primary antibodies were dilulted 500, 2000, and 1000 times for anti-ICAM-1, anti-LDLR, and anti-actin antibodies, respectively. Working dilutions of secondary antibody was 1000, 1000, and 800 for anti-ICAM-1, anti-LDLR, and anti-actin, respectively. Ten micrograms of cell lysates from different treatments were mixed with an equal volume of 5× Laemmli sample buffer, boiled in 10 min, and resolved by electrophoresis in 11% sodium dodecyl sulfate-polyacrylamide gels (SDS-PAGE). […] Differences in protein expressions were quantified using a Molecular Imager Gel Doc XR system (Bio-Rad, Hercules, CA) and normalized to actin expression on the same membrane.
as §1, with “The sensitivities of the assays were 0.3 ng/mL.” left out

SMILES	sICAM-1 levels in supernatants vs cultures without treatment (sICAM-1)	IL-6 concentrations in infected cultures (IL-6)	IL-6 concentrations in mock cultures vs mock cultures without treatment (IL-6; noninfected MRC5 supernatants)	mICAM-1 protein levels vs cultures without treatment (mICAM-1)
COc1ccc(C(C)=O)c(O)c1 [PA, paeonol]	significantly lower	reduced	higher	similar
O=C(OC[C@H]1O[C@@H](OC(=O)c2cc(O)c(O)c(O)c2)[C@H](OC(=O)c2cc(O)c(O)c(O)c2)[C@@H](OC(=O)c2cc(O)c(O)c(O)c2)[C@@H]1OC(=O)c1cc(O)c(O)c(O)c1)c1cc(O)c(O)c(O)c1 [PGG, 1,2,3,4,6-penta-O-galloyl-β-D-glucopyranose]	significantly lower	reduced	–	similar
